# Measured values as given in patent publication US20230136600A1, “Method and device for screening antigen epitope polypeptide” (priority 2020, published 2023).
# Experiments:
# Balb/c mice = experiment: Polypeptide chip-based vaccine immunogenicity scoring system; type: in vivo; set-up: key to A2: whether the 95 percentile of the last sampling is increased compared with the end point: Y = rise; N = no rise; details: for A1: difference between a highest median and a D 0 median (95 percentile) / A2: whether the 95 percentile of the last sampling is increased compared with the end point: Mix1-10; for A: 95 percentile grouping number score / B: Mouse performance score: total score = 5; for C1: #A timing-sequence response peptide fragment set / C2: #B vaccine specificity peptide fragment set / C3: Intersection of A and B / C4: Percentage of the intersection in set B / C: Timing-sequence response and specificity score: value of the whole mix
# [1] = tested on: novel coronavirus (live coronavirus), vero cells; experiment: In-vitro live virus neutralization experiment with serum of immunized mice (CPE method); type: in vivo, SARS-CoV-2; details: Embodiment I: single peptide 100 μg + MF59 at Day 0, 14, 28, Balb/c mice, serum Day 35
# [2] = Embodiment III, polypeptide-KLH
# [3] = Embodiment III, polypeptide-KLH, A*3 + B*2 + C*1
# [4] = adjuvant AddaVax, 7 peptides co-immunized in mice
# [5] = adjuvant Adju-Phos, 7 peptides co-immunized in mice
# [6] = adjuvant Alhydrogel, 7 peptides co-immunized in mice
# [7] = adjuvant Imjet Alumn, 7 peptides co-immunized in mice
# [8] = adjuvant MA103A, 7 peptides co-immunized in mice
# [9] = adjuvant MA103B, 7 peptides co-immunized in mice
sequence,measurement,setting,value
KLDDKDPNFK (SARS-CoV-2) [SEQ ID NO:20],B1: D 0-D 14 95 percentile rise in the number of mice,Balb/c mice; [2],3
same,B2: D 0-D 21 95 percentile rise in the number of mice,Balb/c mice; [2],3
same,B3: D 14-D 21 95 percentile rise in the number of mice,Balb/c mice; [2],1
same,B4: D 21-D 28 95 percentile rise in the number of mice,Balb/c mice; [2],1
same,A1: difference between a highest median and a D 0 median (95 percentile),Balb/c mice; [2],0.08
same,A2: whether the 95 percentile of the last sampling is increased compared with the end point,Balb/c mice; [2],Y
same,Total single peptide,Balb/c mice; [3],14.8
same,A: 95 percentile grouping number score,Balb/c mice; [2],3.5
same,B: Mouse performance score,Balb/c mice; [2],1.9
same,C1: #A timing-sequence response peptide fragment set,Balb/c mice; [2],511
same,C2: #B vaccine specificity peptide fragment set,Balb/c mice; [2],364
same,C3: Intersection of A and B,Balb/c mice; [2],1
same,C4: Percentage of the intersection in set B,Balb/c mice; [2],0.275
same,C: Timing-sequence response and specificity score,Balb/c mice; [2],0.5
same,1) 95 percentile grouping number A,Balb/c mice; [4],0
same,1) 95 percentile grouping number A1,Balb/c mice; [4],0
same,2) Mouse performance B,Balb/c mice; [4],1.5
same,2) Mouse performance B1,Balb/c mice; [4],1
same,2) Mouse performance B2,Balb/c mice; [4],0
same,2) Mouse performance B3,Balb/c mice; [4],3
same,3) Timing-sequence response and specificity C,Balb/c mice; [4],0
same,3) Timing-sequence response and specificity C1,Balb/c mice; [4],237
same,3) Timing-sequence response and specificity C2,Balb/c mice; [4],1244
same,3) Timing-sequence response and specificity C3,Balb/c mice; [4],0
same,3) Timing-sequence response and specificity C4,Balb/c mice; [4],0.000
same,Total single peptide,Balb/c mice; [4],3
same,1) 95 percentile grouping number A,Balb/c mice; [5],1.5
same,1) 95 percentile grouping number A1,Balb/c mice; [5],0.025
same,2) Mouse performance B,Balb/c mice; [5],1.4
same,2) Mouse performance B1,Balb/c mice; [5],2
same,2) Mouse performance B2,Balb/c mice; [5],2
same,2) Mouse performance B3,Balb/c mice; [5],1
same,3) Timing-sequence response and specificity C,Balb/c mice; [5],0
same,3) Timing-sequence response and specificity C1,Balb/c mice; [5],203
same,3) Timing-sequence response and specificity C2,Balb/c mice; [5],1244
same,3) Timing-sequence response and specificity C3,Balb/c mice; [5],0
same,3) Timing-sequence response and specificity C4,Balb/c mice; [5],0.000
same,Total single peptide,Balb/c mice; [5],7.3
same,1) 95 percentile grouping number A,Balb/c mice; [6],0
same,1) 95 percentile grouping number A1,Balb/c mice; [6],0
same,2) Mouse performance B,Balb/c mice; [6],1.6
same,2) Mouse performance B1,Balb/c mice; [6],2
same,2) Mouse performance B2,Balb/c mice; [6],1
same,2) Mouse performance B3,Balb/c mice; [6],2
same,3) Timing-sequence response and specificity C,Balb/c mice; [6],1
same,3) Timing-sequence response and specificity C1,Balb/c mice; [6],123
same,3) Timing-sequence response and specificity C2,Balb/c mice; [6],1244
same,3) Timing-sequence response and specificity C3,Balb/c mice; [6],2
same,3) Timing-sequence response and specificity C4,Balb/c mice; [6],0.161
same,Total single peptide,Balb/c mice; [6],3.7
same,1) 95 percentile grouping number A,Balb/c mice; [7],0
same,1) 95 percentile grouping number A1,Balb/c mice; [7],0
same,2) Mouse performance B,Balb/c mice; [7],1.7
same,2) Mouse performance B1,Balb/c mice; [7],1
same,2) Mouse performance B2,Balb/c mice; [7],1
same,2) Mouse performance B3,Balb/c mice; [7],3
same,3) Timing-sequence response and specificity C,Balb/c mice; [7],1
same,3) Timing-sequence response and specificity C1,Balb/c mice; [7],100
same,3) Timing-sequence response and specificity C2,Balb/c mice; [7],1244
same,3) Timing-sequence response and specificity C3,Balb/c mice; [7],3
same,3) Timing-sequence response and specificity C4,Balb/c mice; [7],0.241
same,Total single peptide,Balb/c mice; [7],3.9
same,1) 95 percentile grouping number A,Balb/c mice; [8],1.5
same,1) 95 percentile grouping number A1,Balb/c mice; [8],0.015
same,2) Mouse performance B,Balb/c mice; [8],2.4
same,2) Mouse performance B1,Balb/c mice; [8],2
same,2) Mouse performance B2,Balb/c mice; [8],3
same,2) Mouse performance B3,Balb/c mice; [8],3
same,3) Timing-sequence response and specificity C,Balb/c mice; [8],1
same,3) Timing-sequence response and specificity C1,Balb/c mice; [8],260
same,3) Timing-sequence response and specificity C2,Balb/c mice; [8],1244
same,3) Timing-sequence response and specificity C3,Balb/c mice; [8],3
same,3) Timing-sequence response and specificity C4,Balb/c mice; [8],0.241
same,Total single peptide,Balb/c mice; [8],9.8
same,1) 95 percentile grouping number A,Balb/c mice; [9],1
same,1) 95 percentile grouping number A1,Balb/c mice; [9],0.02
same,2) Mouse performance B,Balb/c mice; [9],2.1
same,2) Mouse performance B1,Balb/c mice; [9],3
same,2) Mouse performance B2,Balb/c mice; [9],2
same,2) Mouse performance B3,Balb/c mice; [9],2
same,3) Timing-sequence response and specificity C,Balb/c mice; [9],0
same,3) Timing-sequence response and specificity C1,Balb/c mice; [9],153
same,3) Timing-sequence response and specificity C2,Balb/c mice; [9],1244
same,3) Timing-sequence response and specificity C3,Balb/c mice; [9],0
same,3) Timing-sequence response and specificity C4,Balb/c mice; [9],0.000
same,Total single peptide,Balb/c mice; [9],7.2
same,Neutralizing antibody positive rate (%),[1],20%
MEVTPSGTWLTY (SARS-CoV-2) [SEQ ID NO:22],B1: D 0-D 14 95 percentile rise in the number of mice,Balb/c mice; [2],3
same,B2: D 0-D 21 95 percentile rise in the number of mice,Balb/c mice; [2],3
same,B3: D 14-D 21 95 percentile rise in the number of mice,Balb/c mice; [2],3
same,B4: D 21-D 28 95 percentile rise in the number of mice,Balb/c mice; [2],0
same,A1: difference between a highest median and a D 0 median (95 percentile),Balb/c mice; [2],0.07
same,A2: whether the 95 percentile of the last sampling is increased compared with the end point,Balb/c mice; [2],N
same,Total single peptide,Balb/c mice; [3],10.7
same,A: 95 percentile grouping number score,Balb/c mice; [2],2
same,B: Mouse performance score,Balb/c mice; [2],2.1
same,C1: #A timing-sequence response peptide fragment set,Balb/c mice; [2],352
same,C2: #B vaccine specificity peptide fragment set,Balb/c mice; [2],541
same,C3: Intersection of A and B,Balb/c mice; [2],1
same,C4: Percentage of the intersection in set B,Balb/c mice; [2],0.185
same,C: Timing-sequence response and specificity score,Balb/c mice; [2],0.5
same,1) 95 percentile grouping number A,Balb/c mice; [4],4
same,1) 95 percentile grouping number A1,Balb/c mice; [4],0.05
same,2) Mouse performance B,Balb/c mice; [4],2.9
same,2) Mouse performance B1,Balb/c mice; [4],3
same,2) Mouse performance B2,Balb/c mice; [4],4
same,2) Mouse performance B3,Balb/c mice; [4],3
same,3) Timing-sequence response and specificity C,Balb/c mice; [4],0
same,3) Timing-sequence response and specificity C1,Balb/c mice; [4],237
same,3) Timing-sequence response and specificity C2,Balb/c mice; [4],1244
same,3) Timing-sequence response and specificity C3,Balb/c mice; [4],0
same,3) Timing-sequence response and specificity C4,Balb/c mice; [4],0.000
same,Total single peptide,Balb/c mice; [4],17.8
same,1) 95 percentile grouping number A,Balb/c mice; [5],5
same,1) 95 percentile grouping number A1,Balb/c mice; [5],0.075
same,2) Mouse performance B,Balb/c mice; [5],2.1
same,2) Mouse performance B1,Balb/c mice; [5],3
same,2) Mouse performance B2,Balb/c mice; [5],4
same,2) Mouse performance B3,Balb/c mice; [5],1
same,3) Timing-sequence response and specificity C,Balb/c mice; [5],0
same,3) Timing-sequence response and specificity C1,Balb/c mice; [5],203
same,3) Timing-sequence response and specificity C2,Balb/c mice; [5],1244
same,3) Timing-sequence response and specificity C3,Balb/c mice; [5],0
same,3) Timing-sequence response and specificity C4,Balb/c mice; [5],0.000
same,Total single peptide,Balb/c mice; [5],19.2
same,1) 95 percentile grouping number A,Balb/c mice; [6],2
same,1) 95 percentile grouping number A1,Balb/c mice; [6],0.03
same,2) Mouse performance B,Balb/c mice; [6],1.7
same,2) Mouse performance B1,Balb/c mice; [6],3
same,2) Mouse performance B2,Balb/c mice; [6],2
same,2) Mouse performance B3,Balb/c mice; [6],1
same,3) Timing-sequence response and specificity C,Balb/c mice; [6],1
same,3) Timing-sequence response and specificity C1,Balb/c mice; [6],123
same,3) Timing-sequence response and specificity C2,Balb/c mice; [6],1244
same,3) Timing-sequence response and specificity C3,Balb/c mice; [6],2
same,3) Timing-sequence response and specificity C4,Balb/c mice; [6],0.161
same,Total single peptide,Balb/c mice; [6],9.9
same,1) 95 percentile grouping number A,Balb/c mice; [7],5
same,1) 95 percentile grouping number A1,Balb/c mice; [7],0.145
same,2) Mouse performance B,Balb/c mice; [7],2.3
same,2) Mouse performance B1,Balb/c mice; [7],5
same,2) Mouse performance B2,Balb/c mice; [7],4
same,2) Mouse performance B3,Balb/c mice; [7],0
same,3) Timing-sequence response and specificity C,Balb/c mice; [7],1
same,3) Timing-sequence response and specificity C1,Balb/c mice; [7],100
same,3) Timing-sequence response and specificity C2,Balb/c mice; [7],1244
same,3) Timing-sequence response and specificity C3,Balb/c mice; [7],3
same,3) Timing-sequence response and specificity C4,Balb/c mice; [7],0.241
same,Total single peptide,Balb/c mice; [7],20.1
same,1) 95 percentile grouping number A,Balb/c mice; [8],5
same,1) 95 percentile grouping number A1,Balb/c mice; [8],0.11
same,2) Mouse performance B,Balb/c mice; [8],2.5
same,2) Mouse performance B1,Balb/c mice; [8],5
same,2) Mouse performance B2,Balb/c mice; [8],5
same,2) Mouse performance B3,Balb/c mice; [8],0
same,3) Timing-sequence response and specificity C,Balb/c mice; [8],1
same,3) Timing-sequence response and specificity C1,Balb/c mice; [8],260
same,3) Timing-sequence response and specificity C2,Balb/c mice; [8],1244
same,3) Timing-sequence response and specificity C3,Balb/c mice; [8],3
same,3) Timing-sequence response and specificity C4,Balb/c mice; [8],0.241
same,Total single peptide,Balb/c mice; [8],20.5
same,1) 95 percentile grouping number A,Balb/c mice; [9],4.5
same,1) 95 percentile grouping number A1,Balb/c mice; [9],0.07
same,2) Mouse performance B,Balb/c mice; [9],3
same,2) Mouse performance B1,Balb/c mice; [9],4
same,2) Mouse performance B2,Balb/c mice; [9],5
same,2) Mouse performance B3,Balb/c mice; [9],2
same,3) Timing-sequence response and specificity C,Balb/c mice; [9],0
same,3) Timing-sequence response and specificity C1,Balb/c mice; [9],153
same,3) Timing-sequence response and specificity C2,Balb/c mice; [9],1244
same,3) Timing-sequence response and specificity C3,Balb/c mice; [9],0
same,3) Timing-sequence response and specificity C4,Balb/c mice; [9],0.000
same,Total single peptide,Balb/c mice; [9],19.5
same,Neutralizing antibody positive rate (%),[1],20%
